Test results reported in US20050282911A1, “Memantine for the prevention or reduction of suicidality and for treatment of major depression associated with suicidality” (priority 2003, published 2005).
Entries after “also recorded” stand apart in the source; their conditions may differ.

Experiments:
[1] = cited from earlier work
[2] = system: patients with major depressive disorder (MDD); test: Open-label 12-week study of memantine in MDD (MEM-MD-09): safety and adverse events; type: in vivo, human
Protocol: Study Design. The study was designed as a single-center, open-label, flexible dose 12-week study. Memantine was to be administered at 20 mg/day (10 mg b.i.d.) (titrated over a 4 week period), and, if warranted, up-titrated to a maximum of 40 mg/day (20 mg b.i.d.) (titrated in increments of 10 mg/day after Week 4).
Drug Treatment. All eight patients were initially given 5 mg/day and titrated over a 3-week period to a minimum dose of 20 mg/day. Patients with an unsatisfactory therapeutic response (CGI-I score greater than 2) could increase to a maximum of 40 mg/day (2 patients, 30 mg/day and 40 mg/day, respectively). One patient was titrated to 30 mg/day after Week 8, and […] after Week 10. The mean treatment duration was 82 days (range: 57-86 days) and the mean daily dose was 18.1 mg/day.
Safety. Safety was assessed throughout the course of the study by monitoring vital signs and spontaneously reported adverse events.

[3] = system: patients with depression of Alzheimer's disease; test: Study MEM-MD-17: memantine in depression of Alzheimer's disease, suicide items of CSDD, MADRS, HAMD; type: in vivo, human; design: key to Change from Baseline in CSDD item #16 (suicide item): change in item score; 0=absent, 1=mild to intermittent, 2=severe; Change from Baseline in MADRS item #10 (suicide item) / Change from Baseline in HAMD item #3 (suicide item): scale not given here
Protocol: The objective of this study (MEM-MD-17) was to evaluate the safety and efficacy of memantine and memantine in combination with escitalopram in patients with depression of Alzheimer's disease.
The clinical study was conducted in two phases —12-weeks of open-label treatment with memantine (MEM) followed by 12-weeks of randomized double-blind treatment with memantine+placebo (MEM+PBO) or memantine+escitalopram (MEM+SCT).
Study design. Patients were started on memantine 5 mg/day which was increased to 10 mg/day at end of Week 1. The dose could be further increased to a maximum of 20 mg/day in patients with inadequate response in weekly increments of 5 mg. At end of Week 12, patients were randomized to one of the two treatment groups: MEM+PBO or MEM+SCT. The dose of memantine during the double-blind treatment period was fixed at the same level as at the end of Week 12 and the dose of escitalopram was fixed at 10 mg. Dose adjustments during the double-blind period were not permitted.
Patient Population. A total of 15 patients were enrolled in 2 sites. Three of the 15 patients discontinued during the open-label phase. The remaining 12 were randomized to double-blind treatment, 5 in the MEM+PBO treatment group, and 7 in the MEM+SCT treatment group. A total of 10 patients completed the study.
Endpoints. Several rating scales were used to assess efficacy for depression. The Cornell Scale for Depression in Dementia (CSDD); the HAMD; and the MADRS. The HAMD and MADRS have been described above.
CSDD. This is a […] scale which is subdivided into five sections: (A) Mood-Related Signs (questions 1-4); (B) Behavioral Disturbances (questions 5-8); (C) Physical Signs (questions 9-11); (D) Cyclic Functions (questions 12-15); and (E) Ideational Disturbances (questions 16-19). Question 16 is explicitly directed to suicidal ideation. The scoring system ranges from a=unable to evaluate; 0=absent; 1=mild to intermittent; and 2=severe.
Statistics. The efficacy analyses were based on the ITT population using both last observation carried forward (LOCF) and observed cases (OC) approaches. For each of the parameters, descriptive statistics were presented for the actual values and change from baseline by visit. For categorical variables, frequency distributions were presented.

Question: Which results are given for `CC12CC3CC(C)(C1)CC(N)(C3)C2.Cl` [Memantine, 1-amino-3,5-dimethyladamantane hydrochloride]?
Answer: solubility in aqueous media [1]: highly soluble; clinical laboratory parameters, vital signs or ECG values ([2]; 20-40 mg/day, 12 weeks): no safety findings of concern; deaths, serious adverse events, discontinuations due to adverse events ([2]; 20-40 mg/day, 12 weeks): No deaths, serious adverse events or discontinuations due to adverse events; safety and tolerability ([2]; 20-40 mg/day, 12 weeks): safe and well tolerated; Number of Patients Reporting TEAE: Amnesia ([2]; Safety Population, N = 8): 2 patients; Number of Patients Reporting TEAE: Anxiety ([2]; Safety Population, N = 8): 2 patients; Number of Patients Reporting TEAE: Dizziness ([2]; Safety Population, N = 8): 2 patients; Number of Patients Reporting TEAE: Headache ([2]; Safety Population, N = 8): 2 patients; Number of Patients Reporting TEAE: Influenza-like Symptoms ([2]; Safety Population, N = 8): 2 patients; Number of Patients Reporting TEAE: Insomnia ([2]; Safety Population, N = 8): 2 patients; Number of Patients Reporting TEAE: Patients with at least one TEAE ([2]; Safety Population, N = 8): 8 patients; Number of Patients Reporting TEAE: Somnolence ([2]; Safety Population, N = 8): 3 patients; Change from Baseline in CSDD item #16 (suicide item) ([3]; Week 12, ITT Population, N = 5 who received memantine throughout, baseline 0.4): −0.4; Change from Baseline in HAMD item #3 (suicide item) ([3]; Week 12, ITT Population, N = 5 who received memantine throughout, baseline 0.8): −0.8; Change from Baseline in MADRS item #10 (suicide item) ([3]; Week 12, ITT Population, N = 5 who received memantine throughout, baseline 1.0): −1.0; Change from Baseline in CSDD item #16 (suicide item) ([3]; Week 12, LOCF, ITT Population, N = 15, baseline 0.4): −0.3; Change from Baseline in HAMD item #3 (suicide item) ([3]; Week 12, LOCF, ITT Population, N = 15, baseline 0.5): −0.5; Change from Baseline in MADRS item #10 (suicide item) ([3]; Week 12, LOCF, ITT Population, N = 15, baseline 0.9): −0.6; Change from Baseline in CSDD item #16 (suicide item) ([3]; Week 24, ITT Population, N = 5 who received memantine throughout, baseline 0.4): −0.3; Change from Baseline in HAMD item #3 (suicide item) ([3]; Week 24, ITT Population, N = 5 who received memantine throughout, baseline 0.8): −0.5; Change from Baseline in MADRS item #10 (suicide item) ([3]; Week 24, ITT Population, N = 5 who received memantine throughout, baseline 1.0): −0.5; suicidality as measured by 3 different depression rating instruments ([3]; change from Baseline at Weeks 12 and 24, hydrochloride): modest but consistent numerical improvement in suicidality; also recorded: trend towards reduced suicidal thoughts and ideation
